In the assay the target is T1, soluble guanylate cyclase (sGC) (Rattus norvegicus, UniProt P20595).
T1 construct: made in house; host or cells: baculovirus/Sf9 insect cells
T1 sequence (P20595 1-619): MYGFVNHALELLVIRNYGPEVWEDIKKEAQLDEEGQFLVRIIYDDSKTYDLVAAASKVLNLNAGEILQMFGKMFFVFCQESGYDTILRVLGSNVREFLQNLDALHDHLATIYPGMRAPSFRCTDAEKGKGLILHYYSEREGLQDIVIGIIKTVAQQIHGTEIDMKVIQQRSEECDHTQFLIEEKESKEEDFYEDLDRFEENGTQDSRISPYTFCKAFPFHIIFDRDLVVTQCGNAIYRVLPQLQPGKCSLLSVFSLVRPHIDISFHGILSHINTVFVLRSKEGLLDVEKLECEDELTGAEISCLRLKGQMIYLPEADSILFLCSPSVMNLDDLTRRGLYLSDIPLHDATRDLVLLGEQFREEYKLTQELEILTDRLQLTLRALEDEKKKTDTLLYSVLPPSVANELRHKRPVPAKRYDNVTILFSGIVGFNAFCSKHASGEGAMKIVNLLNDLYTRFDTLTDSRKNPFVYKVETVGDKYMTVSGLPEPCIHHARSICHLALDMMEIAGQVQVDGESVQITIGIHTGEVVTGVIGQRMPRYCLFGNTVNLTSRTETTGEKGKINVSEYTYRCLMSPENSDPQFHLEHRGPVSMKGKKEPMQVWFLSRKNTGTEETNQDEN
T1 sequence (P19686 1-690 partner): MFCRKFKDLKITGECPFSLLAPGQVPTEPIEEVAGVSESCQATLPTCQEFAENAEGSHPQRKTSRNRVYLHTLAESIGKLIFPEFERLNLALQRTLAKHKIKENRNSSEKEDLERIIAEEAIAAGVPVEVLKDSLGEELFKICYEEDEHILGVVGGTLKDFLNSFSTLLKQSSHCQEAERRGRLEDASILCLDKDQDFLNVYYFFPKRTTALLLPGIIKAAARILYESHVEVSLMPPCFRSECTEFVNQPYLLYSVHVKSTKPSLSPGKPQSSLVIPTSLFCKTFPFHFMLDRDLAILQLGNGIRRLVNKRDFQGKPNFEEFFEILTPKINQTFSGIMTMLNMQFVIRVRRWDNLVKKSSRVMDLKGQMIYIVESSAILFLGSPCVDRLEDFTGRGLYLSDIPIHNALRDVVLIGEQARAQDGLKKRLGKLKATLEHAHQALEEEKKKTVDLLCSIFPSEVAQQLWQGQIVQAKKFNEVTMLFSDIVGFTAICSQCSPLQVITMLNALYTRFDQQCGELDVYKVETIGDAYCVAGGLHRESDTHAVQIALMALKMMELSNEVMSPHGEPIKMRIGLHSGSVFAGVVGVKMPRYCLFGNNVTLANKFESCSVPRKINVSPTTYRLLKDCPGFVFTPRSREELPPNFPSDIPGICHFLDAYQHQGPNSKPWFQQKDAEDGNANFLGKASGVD
In words: Activating action at the sGC enzyme in vitro (PPi detection, luciferase). In kind it is biochemical. The gist of the method: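 Rat sGC (0–10 nM) preincubated 10 min at room temperature with compound in TEA buffer, pH 7.5; reaction started with GTP (1.25 mM solution). PPi formed read continuously by luciferase luminescence; stimulation expressed relative to unstimulated enzyme. Heme-free enzyme tested after 30 min with 25 μM ODQ.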

Data on 1 molecule can be found in patent US8987256B2, “Oxo-heterocyclic substituted carboxylic acid derivatives and the use thereof” (Bayer Intellectual Property GmbH, priority 2008, dated 2015).

As for `O=C(O)CCc1cccc(NC(=O)C(c2ccc(CN3N=C(c4ccccc4)OCC3=O)cc2)C2CCCC2)c1` (single isomer, unassigned) [Example 103, 3-{3-[(Cyclopentyl{4-[(5-oxo-2-phenyl-5,6-dihydro-4H-1,3,4-oxadiazin-4-yl)methyl]phenyl}acetyl)amino]phenyl}propanoic acid], the “MEC (minimum effective concentration), activating action at the sGC enzyme” value stood at 20 nM. Besides, under “read-out: EC50 (concentration at 50% of maximum efficacy), activating action at the sGC enzyme”, the EC50 worked out at 381 nM.
